Reference: patent US9556109B1, “Triscationic amphiphile derivative compounds having a pendent alcohol group, compositions thereof, and methods for making same” (James Madison Innovations, Inc., priority 2015, dated 2017)
In brackets after ≈: the same amount, converted by molar mass.

Legend:
E. faecalis (G+) = assay: Minimum inhibitory concentration (MIC), E. faecalis; format: cell-based, Enterococcus faecalis; conditions: Experiment 2, Table 3
B. subtilis (G+) = format: cell-based; conditions: Experiment 2, Table 3
S. agalactiae (G+) = assay: Minimum inhibitory concentration (MIC), S. agalactiae; format: cell-based, Streptococcus agalactiae; conditions: Experiment 2, Table 3
E. coli (G−) = assay: Minimum inhibitory concentration (MIC), E. coli; format: cell-based, Escherichia coli
B. anthracis (G+) = format: cell-based; conditions: Experiment 2, Table 3
P. aeruginosa (G−) [1] = assay: Minimum inhibitory concentration (MIC), P. aeruginosa; format: cell-based, Pseudomonas aeruginosa
S. aureus (G+) = assay: Minimum inhibitory concentration (MIC), S. aureus; format: cell-based, Staphylococcus aureus
[2] = Isothermal titration calorimetry: critical aggregation concentration and degree of ionization; format: physicochemical; conditions: 37° C.; for CAC: ITC, pure water
Description: Isothermal titration calorimetry (ITC) was used to determine the critical aggregation concentration (CAC) and the degree of ionization at 37° C. associated with aggregate formation for each amphiphile for the M-E series, as shown in Table 1.
A Nano ITC was used to measure the heat change associated with the deaggregation of amphiphiles via power compensation. A concentrated aqueous solution of amphiphile (>>CAC) was titrated into a thermally controlled sample cell, initially containing pure water, in a series of discrete injections. Isothermal titration calorimetry was used to determine the critical aggregation concentration (CAC).
CAC and ΔHagg were determined using a Nano-ITC (TA-Instruments). Prior to each experiment the sample cell was washed with dH2O (300 mL), ethanol (100 mL), dH2O (300 mL) and nanopure water (200 mL). Next, 950 μL of nanopure water was added to the sample cell. A concentrated aqueous solution (>>CAC) of amphiphile was prepared and equilibrated at 37° C. A 250 μL syringe was filled with the aqueous solution, and loaded into the Nano ITC. Multiple single injections in aliquots of 5 μL were injected into the sample cell with time intervals varying from 300 s to 1400 s. Samples were continuously stirred (300 rpm) throughout the titration. The Nano-Analyze program (TA-Instruments) was used to analyze the data. CAC and ΔHagg values reported are the average of two or more repeat experiments for each amphiphile.

Gram-positive bacteria = assay: MIC, summary for Gram-positive bacteria; format: cell-based; conditions: text summary over tested strains
[3] = tested on: Pseudomonas aeruginosa biofilm; assay: Crystal Violet Biofilm Disruption Assay; format: cell-based; conditions: for Max % disruption: over 250-2 μM
Description: A Crystal Violet Biofilm Disruption Assay was adapted from the techniques described in Bendouah, et al. 2006, Biofilm formation by Staphylococcus aureus and Pseudomonas aeruginosa is associated with an unfavorable evolution after surgery for chronic sinusitis and nasal polyposis, Otolaryngol. […] Bacteriol. 193 (20):5616-22. doi: 10.1128/JB.05534-11, which are incorporated by reference in their entirety. Applicants' adapted assay was performed as follows: • 1. Bacterial growth: […] (120 RPM in shaking incubator) for 24 hours • 2. Working stock: Overnight liquid culture diluted down to a bacterial concentration of approximately 5×10^6 CFU/mL in fresh LB • 3. Plate inoculation: Sterile 96-well microtiter plate inoculated with working stock: […] Plate covered with plastic cover, parafilm wrapped around edges; Incubate 24 hours at 37 degrees C. (stationary incubator) to establish biofilm • 4. Treatment: Row A and B: 100 μL sterile PBS (blank and negative control for disruption, respectively); […] Plate covered, wrapped with fresh parafilm, incubated at 37 degrees C. for 24 hours • 5. Staining and quantification: Plate rinsed twice with 1×PBS and allowed to dry; Wells stained with 100 μL 0.1% Crystal Violet dye for 15 minutes, excess rinsed off with gentle running dI water, allowed to dry; Stain dissolved in 100 μL 95% ethanol per well for 1 hour; Ethanol/CV solution transferred to fresh 96-well plate; Plate read at 570 nm on spectrophotometer plate reader; Values for rows C-H compared to row B (neg. control for disruption) to obtain % biofilm disruption at each concentration.

Pa2 (G−) = assay: Minimum inhibitory concentration (MIC), Pa2; conditions: Experiment 1, Table 2
Gram-negative bacteria = assay: MIC, summary for Gram-negative bacteria; format: cell-based; conditions: text summary over tested strains
Pa1 (G−) = assay: Minimum inhibitory concentration (MIC), Pa1; conditions: Experiment 1, Table 2
P. aeruginosa (G−) [4] = conditions: comparison values of known antibiotics; cited from earlier work

CCCCCCCC[N+](C)(C)Cc1cc(C[N+](C)(C)CCO)cc(C[N+](C)(C)CCCCCCCC)c1.[Br-].[Br-].[Br-] [Compound 1]
MIC E. faecalis (G+) (E. faecalis (G+)): 63 µM
MIC B. subtilis (G+) (B. subtilis (G+)): 250 µM
MIC S. agalactiae (G+) (S. agalactiae (G+)): 125 µM
MIC E. coli (G−) (E. coli (G−); Experiment 2, Table 3): >250 µM
MIC B. anthracis (G+) (B. anthracis (G+)): 63 µM
MIC P. aeruginosa (G−) (P. aeruginosa (G−) [1]; Experiment 2, Table 3): >250 µM
MIC S. aureus (G+) (S. aureus (G+); Experiment 2, Table 3): 250 µM

CCCCCCCCCC[N+](C)(C)Cc1cc(C[N+](C)(C)CCO)cc(C[N+](C)(C)CCCCCCCCCC)c1.[Br-].[Br-].[Br-] [Compound 2]
MIC E. faecalis (G+) (E. faecalis (G+)): 4 µM
MIC B. subtilis (G+) (B. subtilis (G+)): 16 µM
MIC S. agalactiae (G+) (S. agalactiae (G+)): 4 µM
Degree of Ionization [2]: 0.24
CAC [2]: 9.5 mM
MIC E. coli (G−) (E. coli (G−); Experiment 2, Table 3): 125 µM
MIC B. anthracis (G+) (B. anthracis (G+)): 4 µM
MIC P. aeruginosa (G−) (P. aeruginosa (G−) [1]; Experiment 2, Table 3): 250 µM
MIC S. aureus (G+) (S. aureus (G+); Experiment 2, Table 3): 125 µM

CCCCCCCCCCCC[N+](C)(C)Cc1cc(C[N+](C)(C)CCO)cc(C[N+](C)(C)CCCCCCCCCCCC)c1.[Br-].[Br-].[Br-] [Compound 3]
MIC E. faecalis (G+) (E. faecalis (G+)): 2 µM
MIC B. subtilis (G+) (B. subtilis (G+)): 4 µM
MIC S. agalactiae (G+) (S. agalactiae (G+)): 2 µM
Degree of Ionization [2]: 0.20
CAC [2]: 1.9 mM
MIC for Gram-positive bacteria (Gram-positive bacteria): 4 µM
MIC E. coli (G−) (E. coli (G−); Experiment 1, Table 2): 4 µM
MIC E. coli (G−) (E. coli (G−); Experiment 2, Table 3): 4 µM
MIC B. anthracis (G+) (B. anthracis (G+)): 2 µM
MIC P. aeruginosa (G−) (P. aeruginosa (G−) [1]; Experiment 1, Table 2): 8 µM
MIC P. aeruginosa (G−) (P. aeruginosa (G−) [1]; Experiment 2, Table 3): 8 µM
Min conc. >50% disruption [3]: 63 µM
% disruption average ([3]; 2 μM): 0%
% disruption trial 1 ([3]; 2 μM): 0%
% disruption trial 2 ([3]; 2 μM): 0%
% disruption average ([3]; 4 μM): 5.12%
% disruption trial 1 ([3]; 4 μM): 1.759%
% disruption trial 2 ([3]; 4 μM): 8.481%
% disruption average ([3]; 8 μM): 13.44%
% disruption trial 1 ([3]; 8 μM): 24.06%
% disruption trial 2 ([3]; 8 μM): 2.817%
% disruption average ([3]; 16 μM): 30.79%
% disruption trial 1 ([3]; 16 μM): 47.34%
% disruption trial 2 ([3]; 16 μM): 14.23%
% disruption average ([3]; 31 μM): 46.0133%
% disruption trial 1 ([3]; 31 μM): 61.1%
% disruption trial 2 ([3]; 31 μM): 30.93%
% disruption average ([3]; 63 μM): 68.14%
% disruption trial 1 ([3]; 63 μM): 72.05%
% disruption trial 2 ([3]; 63 μM): 64.22%
% disruption average ([3]; 125 μM): 65.66%
% disruption trial 1 ([3]; 125 μM): 65.04%
% disruption trial 2 ([3]; 125 μM): 66.29%
% disruption average ([3]; 250 μM): 66.48%
% disruption trial 1 ([3]; 250 μM): 67.34%
% disruption trial 2 ([3]; 250 μM): 65.61%
Max % disruption [3]: 68%
MIC Pa2 (G−) (Pa2 (G−)): 8 µM
MIC for Gram-negative bacteria (Gram-negative bacteria): 4 to 8 µM
MIC Pa1 (G−) (Pa1 (G−)): 8 µM
MIC S. aureus (G+) (S. aureus (G+); Experiment 1, Table 2): 4 µM
MIC S. aureus (G+) (S. aureus (G+); Experiment 2, Table 3): 4 µM

CCCCCCCCCCCCCC[N+](C)(C)Cc1cc(C[N+](C)(C)CCO)cc(C[N+](C)(C)CCCCCCCCCCCCCC)c1.[Br-].[Br-].[Br-] [Compound 4]
MIC E. faecalis (G+) (E. faecalis (G+)): 4 µM
MIC B. subtilis (G+) (B. subtilis (G+)): 8 µM
MIC S. agalactiae (G+) (S. agalactiae (G+)): 4 µM
Degree of Ionization [2]: 0.18
CAC [2]: 0.47 mM
MIC E. coli (G−) (E. coli (G−); Experiment 1, Table 2): 8 µM
MIC E. coli (G−) (E. coli (G−); Experiment 2, Table 3): 8 µM
MIC B. anthracis (G+) (B. anthracis (G+)): 8 µM
MIC P. aeruginosa (G−) (P. aeruginosa (G−) [1]; Experiment 1, Table 2): 125 µM
MIC P. aeruginosa (G−) (P. aeruginosa (G−) [1]; Experiment 2, Table 3): 125 µM
MIC Pa2 (G−) (Pa2 (G−)): 250 µM
MIC Pa1 (G−) (Pa1 (G−)): 250 µM
MIC S. aureus (G+) (S. aureus (G+); Experiment 1, Table 2): 8 µM
MIC S. aureus (G+) (S. aureus (G+); Experiment 2, Table 3): 8 µM

CCCCCCCCCCCCCCCC[N+](C)(C)Cc1cc(C[N+](C)(C)CCO)cc(C[N+](C)(C)CCCCCCCCCCCCCCCC)c1.[Br-].[Br-].[Br-] [Compound 5]
MIC E. faecalis (G+) (E. faecalis (G+)): 63 µM
MIC B. subtilis (G+) (B. subtilis (G+)): >250 µM
MIC S. agalactiae (G+) (S. agalactiae (G+)): >250 µM
Degree of Ionization [2]: 0.15
CAC [2]: 0.12 mM
MIC E. coli (G−) (E. coli (G−); Experiment 1, Table 2): 63 µM
MIC E. coli (G−) (E. coli (G−); Experiment 2, Table 3): 63 µM
MIC B. anthracis (G+) (B. anthracis (G+)): >250 µM
MIC P. aeruginosa (G−) (P. aeruginosa (G−) [1]; Experiment 1, Table 2): 125 µM
MIC P. aeruginosa (G−) (P. aeruginosa (G−) [1]; Experiment 2, Table 3): 125 µM
MIC Pa2 (G−) (Pa2 (G−)): >250 µM
MIC Pa1 (G−) (Pa1 (G−)): >250 µM
MIC S. aureus (G+) (S. aureus (G+); Experiment 1, Table 2): 63 µM
MIC S. aureus (G+) (S. aureus (G+); Experiment 2, Table 3): 63 µM

NC[C@H]1O[C@H](O[C@H]2[C@H](O)[C@@H](O[C@H]3O[C@H](CO)[C@@H](O)[C@H](N)[C@H]3O)[C@H](N)C[C@@H]2N)[C@H](N)C[C@@H]1O [Tobramycin, reference compound]
Min conc. >50% disruption [3]: 31 µM
% disruption average ([3]; 2 μM): 6.808%
% disruption trial 1 ([3]; 2 μM): 0%
% disruption trial 2 ([3]; 2 μM): 13.62%
% disruption average ([3]; 4 μM): 27.66%
% disruption trial 1 ([3]; 4 μM): 0%
% disruption trial 2 ([3]; 4 μM): 55.3151%
% disruption average ([3]; 8 μM): 32.13%
% disruption trial 1 ([3]; 8 μM): 15.46%
% disruption trial 2 ([3]; 8 μM): 48.79%
% disruption average ([3]; 16 μM): 13.9806%
% disruption trial 1 ([3]; 16 μM): 0%
% disruption trial 2 ([3]; 16 μM): 27.9612%
% disruption average ([3]; 31 μM): 61.0098%
% disruption trial 1 ([3]; 31 μM): 51.89%
% disruption trial 2 ([3]; 31 μM): 70.13%
% disruption average ([3]; 63 μM): 60.79%
% disruption trial 1 ([3]; 63 μM): 53.5149%
% disruption trial 2 ([3]; 63 μM): 68.07%
% disruption average ([3]; 125 μM): 43.07%
% disruption trial 1 ([3]; 125 μM): 34.88%
% disruption trial 2 ([3]; 125 μM): 51.26%
% disruption average ([3]; 250 μM): 3.803%
% disruption trial 1 ([3]; 250 μM): 0%
% disruption trial 2 ([3]; 250 μM): 7.607%
Max % disruption [3]: 61%
MIC against P. aeruginosa (P. aeruginosa (G−) [4]): 6.4 µM (≈ 2.99 µg/mL)

CO/N=C(\C(=O)N[C@@H]1C(=O)N2C(C(=O)[O-])=C(C[N+]3(C)CCCC3)CS[C@H]12)c1csc(N)n1 [cefepime]
MIC against P. aeruginosa (P. aeruginosa (G−) [4]): 12.5 µM (≈ 6.01 µg/mL)
